Measurements as given in publication PMC10831786 (Virus Research, 2024).
Where “and” joins values, the source holds several entries; their conditions need not be identical. Identical values can stand only once. Counter-ions that a name gives are not always drawn. Like-named read-outs stand apart in the source and are kept apart here.

Columns and labels:
[1] = test system: protein synthesis in BEC-hACE2 cells; experiment: Puromycin pulse labeling, protein synthesis in cultured BEC-hACE2 cells; type: cell-based, human; conditions: for inhibition at 1 µM: BEC-hACE2, 1 μM
[2] = molecular target: T1, l-type calcium current ICaL (Cavia porcellus, UniProt O35505); experiment: Patch clamp recording of ICaL in guinea pig ventricular myocytes; type: cell-based; conditions: for IC50: GP cardiomyocytes, read-out: IC50, calcium channel (ICaL) blocking activity; for Kd: guinea pig ventricular myocytes, Langmuir isotherm, 5-60 μM, read-out: KD for inhibition of ICaL
T1 construct: from tissue; host or cells: freshly dissociated guinea pig ventricular myocytes
T1 sequence (O35505 whole entry): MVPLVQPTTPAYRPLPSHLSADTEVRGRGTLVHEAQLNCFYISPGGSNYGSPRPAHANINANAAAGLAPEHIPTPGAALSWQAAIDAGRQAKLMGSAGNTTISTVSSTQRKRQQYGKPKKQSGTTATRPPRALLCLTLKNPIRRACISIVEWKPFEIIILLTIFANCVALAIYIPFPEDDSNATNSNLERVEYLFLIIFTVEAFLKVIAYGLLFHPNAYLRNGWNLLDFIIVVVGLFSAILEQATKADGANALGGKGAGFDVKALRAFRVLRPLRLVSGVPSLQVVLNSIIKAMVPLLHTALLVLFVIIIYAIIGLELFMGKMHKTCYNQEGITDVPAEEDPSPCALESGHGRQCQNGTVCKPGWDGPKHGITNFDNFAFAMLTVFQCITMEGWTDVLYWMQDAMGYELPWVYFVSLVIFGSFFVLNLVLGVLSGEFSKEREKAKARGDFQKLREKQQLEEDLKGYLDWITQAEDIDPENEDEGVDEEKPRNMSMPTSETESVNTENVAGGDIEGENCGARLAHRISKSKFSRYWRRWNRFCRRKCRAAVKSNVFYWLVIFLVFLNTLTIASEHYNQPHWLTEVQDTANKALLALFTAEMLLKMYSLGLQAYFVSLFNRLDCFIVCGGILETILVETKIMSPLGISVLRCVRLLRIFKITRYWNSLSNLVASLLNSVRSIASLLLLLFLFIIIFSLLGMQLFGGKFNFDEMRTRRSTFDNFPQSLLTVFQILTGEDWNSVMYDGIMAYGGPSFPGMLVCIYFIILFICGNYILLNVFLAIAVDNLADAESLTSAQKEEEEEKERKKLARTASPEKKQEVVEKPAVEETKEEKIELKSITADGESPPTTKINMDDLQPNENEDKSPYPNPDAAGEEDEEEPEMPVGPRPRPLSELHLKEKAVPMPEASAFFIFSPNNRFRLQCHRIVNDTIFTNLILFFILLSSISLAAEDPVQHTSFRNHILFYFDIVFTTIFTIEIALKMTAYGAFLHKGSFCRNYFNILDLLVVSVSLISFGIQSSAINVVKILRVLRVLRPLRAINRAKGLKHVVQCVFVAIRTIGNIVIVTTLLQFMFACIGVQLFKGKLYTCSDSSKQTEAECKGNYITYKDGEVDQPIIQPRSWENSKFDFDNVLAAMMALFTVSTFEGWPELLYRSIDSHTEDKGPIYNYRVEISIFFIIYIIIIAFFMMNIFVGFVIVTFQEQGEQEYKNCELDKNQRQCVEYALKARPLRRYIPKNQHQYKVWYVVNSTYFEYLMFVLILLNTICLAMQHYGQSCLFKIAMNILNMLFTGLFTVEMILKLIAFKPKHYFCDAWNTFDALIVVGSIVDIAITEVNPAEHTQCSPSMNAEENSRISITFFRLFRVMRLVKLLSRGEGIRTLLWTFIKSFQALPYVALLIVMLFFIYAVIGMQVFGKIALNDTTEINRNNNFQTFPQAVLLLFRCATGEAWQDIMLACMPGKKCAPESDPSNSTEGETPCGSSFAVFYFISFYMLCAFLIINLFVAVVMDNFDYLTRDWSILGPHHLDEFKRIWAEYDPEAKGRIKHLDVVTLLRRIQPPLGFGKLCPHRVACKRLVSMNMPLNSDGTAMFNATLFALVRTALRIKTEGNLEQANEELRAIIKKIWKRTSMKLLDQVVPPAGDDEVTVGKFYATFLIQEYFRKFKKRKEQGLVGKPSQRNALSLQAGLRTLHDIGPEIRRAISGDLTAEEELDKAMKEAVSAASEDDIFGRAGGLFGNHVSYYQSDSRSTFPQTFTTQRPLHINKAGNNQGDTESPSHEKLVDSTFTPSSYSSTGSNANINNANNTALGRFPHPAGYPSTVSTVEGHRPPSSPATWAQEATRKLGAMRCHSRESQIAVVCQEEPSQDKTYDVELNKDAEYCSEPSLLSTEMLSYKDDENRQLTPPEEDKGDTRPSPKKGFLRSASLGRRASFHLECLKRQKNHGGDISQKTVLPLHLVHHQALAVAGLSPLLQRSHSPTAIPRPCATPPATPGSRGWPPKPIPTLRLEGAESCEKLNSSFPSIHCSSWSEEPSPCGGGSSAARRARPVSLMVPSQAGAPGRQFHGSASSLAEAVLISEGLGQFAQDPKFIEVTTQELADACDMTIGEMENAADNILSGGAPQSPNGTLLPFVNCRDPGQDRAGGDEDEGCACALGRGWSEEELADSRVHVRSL

[3] = test system: Vero E6 cells; experiment: MTS assay, growth inhibition and toxicity in non-infected Vero E6 cells; type: cell-based, African green monkey; conditions: for Concentrations at which drug is cytotoxic: Vero E6, MTS
Experimental: (§1) Detailed methods are provided in Supplementary Information.
(§2) Vero E6 and BEC-hACE2 cells were grown to 70-80% density in their maintenance media and exposed to various concentrations of ipecac alkaloids (0.0125 – 200 µM) under standard culture conditions for 48-72 h and 24 h, respectively. Controls with varying amounts of DMSO and no DMSO were included also. Vero E6 cells were incubated with drugs in 2% FBS-EMEM, while BEC-HACE2 cells were grown and treated in complete PCS-300-03 medium with supplements. Similar treatments were also conducted using fully confluent non-growing BEC-hACE2 cells. At the end of the exposure period, MTS reagent (Promega G3580) was added at 1/5th of the medium volume and color was allowed to develop by incubation of the plates for an hour in a cell culture incubator. To stop reactions, SDS was added to a final concentration of 2% and optical density of samples was measured at 450 or 490 nm, depending on the model of spectrophotometer (PharmaciaBiotech, NJ, USA; UV spectrophotometer, model Ultrospec2000) or plate reader (Molecular Devices, CA, USA; model Filter Max F5 Multi-mode microplate reader) available at the time of experiment.

[4] = test system: BEC-hACE2 cells; experiment: MTS assay, growth inhibition and toxicity in non-infected BEC-hACE2 cells; type: cell-based, human; conditions: for MTS, TGI (beginning of the plateau): BEC-hACE2, 24 h
Experimental: as §1, §2

[5] = test system: HCoV-OC43; experiment: Antiviral activity against HCoV-OC43 in Vero E6 cells (RT-qPCR of N-gene); type: cell-based
Experimental: Vero E6 cells (∼5 × 10^4 cells/cm^2 in 24-well plates) were infected with […] at MOI of 20 genomes per cell in 2 % FBS-EMEM at 33 °C, 5 % CO2 with gently mixing for 2 h. Infection medium was removed, cells were washed with fresh medium followed by the addition of compounds at indicated concentrations in 2 % FBS-EMEM. After 72 h, 100 µL of medium was collected and stored at −80 °C for viral RNA isolation and RT-qPCR analysis as detailed below. Drugs were added to the medium prior to and after viral absorption for comparison.
HCoV-OC43 RNA was isolated from 100 µL of medium using Quick-RNA Viral Kit-DX (Zymo Research, CA, USA; R1035). The relative amount of viral genomic RNA was determined with Luna Universal One-Step RT-qPCR Kit (New England Biolabs, MA, USA; E3005). […]
RT-qPCR cycles were set for 20 min at 55 °C, 1 min at 95 °C followed by 45 cycles of 95 °C for 10 s, 48 °C for 30 s and 60 °C for 1 min. The threshold cycle (Ct) for each sample was determined using the Opticon Monitor 3 Program (BioRad). Drug effects on viral propagation were evaluated assuming that a difference of one cycle corresponds to a two-fold difference in the number of copies of viral RNA. Ct values obtained for drug-free samples were considered as 100 % viral propagation.

[6] = test system: SARS-CoV-2; experiment: Antiviral activity against SARS-CoV-2 in BEC-hACE2 cells (RT-qPCR)
[7] = Betacoronavirus 1, OC43, Vero C1008, 72 h, Vero E6, 72 h, read-out: Antiviral IC50
[8] = Betacoronavirus 1, OC43, Vero C1008, Vero E6, drug added after viral absorption, 72 hpi, read-out: Antiviral IC50
[9] = Severe acute respiratory syndrome coronavirus 2, read-out: Anti-SARS-CoV2, IC50, subconfluent BEC-hACE2, drug after viral absorption, 24 hpi
[10] = Severe acute respiratory syndrome coronavirus 2, read-out: Anti-SARS-CoV-2 IC50, BEC-hACE2, 24 hpi
[11] = Homo sapiens, read-out: Protein synthesis inhibition,%

For `CCC1=C(C[C@H]2NCCc3cc(OC)c(OC)cc32)C[C@H]2c3cc(OC)c(OC)cc3CCN2C1` [DHE4, 4H-Benzo[a]quinolizine, 3-ethyl-1,6,7,11b-tetrahydro-9,10-dimethoxy-2-[[(1R)-1,2,3,4-tetrahydro-6,7-dimethoxy-1-isoquinolinyl]methyl]-, (11bS)-], the inhibition at 1 µM ([1]; Homo sapiens) was 97%, the IC50 [2] was 40000 to 60000 nM and the Kd [2] was 54000 nM. For the same compound, the “Concentrations at which drug is cytotoxic” value [3] was “higher than 10 μM”, the “MTS, TGI (beginning of the plateau)” value [4] was 125 nM and the “MTS, decrease” value ([4]; BEC-hACE2, at 100 μM) was 40%. The “MTS, nature of the effect” value ([4]; BEC-hACE2, at 100 μM) was “cytostatic”, the “MTS, CC50 (50 % effect)” value ([4]; sub-confluent BEC-hACE2, 24 h) was “Effect not reached” and the IC50 [5, 7] was 40 to 60 nM. The IC50 [5, 8] was 63 ± 4 nM, the IC50 ([5]; Betacoronavirus 1, OC43, Vero C1008, read-out: Antiviral IC50, Vero E6, drug 1 h before viral absorption and 72 h after infection (1 hbi/72 hpi)) was 66 ± 6 nM and the “Selectivity index, (SI) CC50/IC50” value ([5]; HCoV-OC43, Vero E6, 72 hpi) was 52. The “SI from MTS CC50 (50 % effect)” value ([6]; SARS-CoV-2, BEC-hACE2) was “exceed 1500”, the IC50 [6, 9] was 88 ± 23 nM and the IC50 [6, 10] was 50 to 100 nM.
With `CC[C@H]1CN2CCc3cc(OC)c(OC)cc3[C@@H]2C[C@@H]1C[C@H]1NCCc2cc(OC)c(OC)cc21` [Emetine, 2H-Benzoaquinolizine, 3-ethyl-1,3,4,6,7,11b-hexahydro-9,10-dimethoxy-2-(1R)-1,2,3,4-tetrahydro-6,7-dimethoxy-1-isoquinolinylmethyl-, dihydrochloride, (2S,3R,11bS)-, reference compound] the IC50 ([1]; Homo sapiens, read-out: IC50, protein synthesis) was ~200 nM, the inhibition at 0.05 µM [1, 11] was 7% and the inhibition at 0.1 µM [1, 11] was 30%. The inhibition at 0.3 µM [1, 11] was 80%, the inhibition at 1000 µM [1, 11] was 97% and the inhibition at 0.5 µM ([1]; Homo sapiens, 0.5 μM, read-out: Inhibition of translation activity in host cells) was ≥ 90%. For the same compound, the inhibition at 1 µM ([1]; Homo sapiens) was 97%, the inhibition at 10 µM ([1]; Homo sapiens, BEC-hACE2, 10 μM) was 100% and the IC50 ([1]; Homo sapiens, BEC-hACE2, read-out: IC50, protein synthesis inhibition) was ~120 nM. The “Impact on ICaL” value ([2]; 0.5 μM) was 1%, the inhibition at 5 µM ([2]; 5 μM) was ~10% and the IC50 [2] was ~57000 nM and 40000 to 60000 nM. For the same compound, the “Estimated reduction in ICaL” value ([2]; GP ventricular myocytes, assuming 25 µM) was “over thirty-three percent”, the Kd [2] was 57000 nM and the “Concentrations at which drug is cytotoxic” value [3] was “higher than 10 μM”. The “MTS, TGI (beginning of the plateau)” value [4] was 125 nM, the “MTS, nature of the effect” value ([4]; BEC-hACE2, at 100 μM) was “cytostatic” and the IC50 [5, 7] was 40 to 60 nM. It also gave an IC50 ([5]; Betacoronavirus 1, OC43, Vero C1008, Vero E6, drug 1 h before viral absorption and 72 h after infection (1 hbi/72 hpi), read-out: Antiviral IC50) of 44 ± 2 nM, an IC50 [5, 8] of 40 ± 2 nM and an IC50 [6, 9] of 52 ± 3 nM. The IC50 [6, 10] was ~52 nM, the inhibition at 0.5 µM ([6]; Severe acute respiratory syndrome coronavirus 2, read-out: Inhibition of viral propagation) was ≥ 90% and the IC50 ([6]; read-out: Anti-SARS-CoV-2 IC50, BEC-hACE2, 24 hpi) was 50 to 100 nM.
For `CC[C@H]1CN2CCc3cc(OC)c(OC)cc3[C@@H]2C[C@@H]1C[C@@H]1NCCc2cc(OC)c(OC)cc21.Cl.Cl` [Isoemetine, 2H-Benzoaquinolizine, 3-ethyl-1,3,4,6,7,11b-hexahydro-9,10-dimethoxy-2-(1S)-1,2,3,4-tetrahydro-6,7-dimethoxy-1-isoquinolinylmethyl-, dihydrochloride, (2S,3R,11bS)-], the “Protein synthesis inhibition,%” value ([1]; BEC-hACE2, 10 μM, 10 µM) was 20%, the “Protein synthesis inhibition,%” value ([1]; BEC-hACE2, 10 μM, listed as ISOEMT, 10 µM) was 18% and the “Protein synthesis inhibition,%” value ([1]; BEC-hACE2, 30 μM, 30 µM) was 50%. For the same compound, the “Protein synthesis inhibition,%” value ([1]; BEC-hACE2, 30 μM, listed as ISOEMT, 30 µM) was 47%, the Kd [2] was 42000 nM and the CC50 ([3]; MTS, 72 h, read-out: Fifty percent effect (CC50) in non-infected Vero E6) was 114000 ± 13100 nM. The “MTS, nature of the effect” value ([4]; BEC-hACE2, at 100 μM) was “cytotoxic”, the “Concentrations at which cells are affected (MTS)” value ([4]; sub-confluent BEC-hACE2, 24 h) was “above 50 μM” and the CC50 ([4]; sub-confluent BEC-hACE2, 24 h, read-out: MTS, CC50 (50 % effect)) was 100000 nM. It also gave an IC50 ([5]; Vero E6, drug added after viral absorption, 72 hpi, read-out: Antiviral IC50) of 1050 ± 213 nM, an IC50 ([6]; read-out: Anti-SARS-CoV2, IC50, subconfluent BEC-hACE2, drug after viral absorption, 24 hpi) of 16500 nM and an IC50 ([6]; read-out: Anti-SARS-CoV2, IC50, subconfluent BEC-hACE2, drug after viral absorption, 24 hpi, listed as ISOEMT) of 16500 ± 6240 nM.
